ChEMBL document CHEMBL5136974, “VHL-based PROTACs as potential therapeutic agents: Recent progress and perspectives” (Eur J Med Chem, 2022)

Legend:
[1] = biological target: T1, von Hippel-Lindau disease tumor suppressor/Epidermal growth factor receptor (Homo sapiens, UniProt P00533+P40337); experiment: Protac activity against VHL/EGFR deletion 19 mutant in human HCC827 cells; assay type: cell-based
[2] = tested on: von Hippel-Lindau disease tumor suppressor/Epidermal growth factor receptor (Homo sapiens), P00533+P40337 [UNDEFINED MUTATION]; experiment: Protac activity against VHL/EGFR deletion 19 mutant in human HCC827 cells relative to control; assay type: cell-based
[3] = biological target: von Hippel-Lindau disease tumor suppressor/Epidermal growth factor receptor (Homo sapiens, UniProt P00533+P40337, L858R); experiment: Protac activity against VHL/EGFR L858R mutant in human […] cells; assay type: cell-based
[4] = tested on: von Hippel-Lindau disease tumor suppressor/Epidermal growth factor receptor (Homo sapiens), P00533+P40337 [L858R]; experiment: Protac activity against VHL/EGFR L858R mutant in human […] cells relative to control; assay type: cell-based
[5] = biological target: T2, von Hippel-Lindau disease tumor suppressor/Cyclin-dependent kinase 6 (Homo sapiens, UniProt Q00534+P40337); experiment: Protac activity at VHL/CDK6 in human MM1.S cells assessed as degradation of CDK6 measured after 16 hrs; assay type: cell-based
[6] = biological target: von Hippel-Lindau disease tumor suppressor/Cyclin-dependent kinase 4 (Homo sapiens, UniProt P11802+P40337); experiment: Protac activity at VHL/CDK4 in human MM1.S cells assessed as degradation of CDK4 measured after 16 hrs; assay type: cell-based
[7] = biological target: T2, von Hippel-Lindau disease tumor suppressor/Cyclin-dependent kinase 6; experiment: Protac activity at VHL/CDK6 in human MM1.S cells assessed as degradation of CDK6 at 100 nM relative to control; assay type: cell-based
Target sequence in this assay (P40337 whole entry, looked up): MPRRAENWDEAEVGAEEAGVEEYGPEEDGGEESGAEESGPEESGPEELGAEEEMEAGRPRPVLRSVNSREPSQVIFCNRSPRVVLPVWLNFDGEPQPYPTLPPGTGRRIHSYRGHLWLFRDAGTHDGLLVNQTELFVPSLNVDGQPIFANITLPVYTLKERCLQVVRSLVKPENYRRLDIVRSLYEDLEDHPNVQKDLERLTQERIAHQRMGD
Target sequence in this assay (Q00534 whole entry, looked up): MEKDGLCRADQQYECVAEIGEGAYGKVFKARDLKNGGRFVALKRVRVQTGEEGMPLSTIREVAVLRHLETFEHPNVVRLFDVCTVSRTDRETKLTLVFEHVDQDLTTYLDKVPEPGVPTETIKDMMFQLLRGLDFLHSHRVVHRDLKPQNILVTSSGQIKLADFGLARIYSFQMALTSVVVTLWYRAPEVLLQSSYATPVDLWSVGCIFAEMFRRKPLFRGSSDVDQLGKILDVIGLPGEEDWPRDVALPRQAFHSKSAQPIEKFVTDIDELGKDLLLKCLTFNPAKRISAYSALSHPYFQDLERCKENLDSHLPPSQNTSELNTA

[8] = biological target: von Hippel-Lindau disease tumor suppressor/Focal adhesion kinase 1 (Homo sapiens) (UniProt Q05397+P40337); experiment: Protac activity at VHL/FAK in serum-free treated human PC-3 cells assessed as degradation of FAK measured after 24 hrs relative to control; assay type: cell-based
[9] = biological target: von Hippel-Lindau disease tumor suppressor/GTPase KRas (Homo sapiens, UniProt P01116+P40337, G12C); experiment: Protac activity at VHL/KRAS G12C mutant (unknown origin); assay type: protein assay
[10] = biological target: von Hippel-Lindau disease tumor suppressor/Oxysterols receptor LXR-beta (Homo sapiens, UniProt P40337+P55055); experiment: Protac activity at VHL/LXR (unknown origin) by TR-FRET assay
[11] = tested on: MV4-11; experiment: Antiproliferative activity against human MV4-11 cells; assay type: functional, cell-based
[12] = tested on: MOLM-14; experiment: Antiproliferative activity against human MOLM-14 cells; assay type: functional, cell-based
[13] = tested on: HT-29; experiment: Antiproliferative activity against human HT-29 cells; assay type: functional, cell-based
[14] = tested on: SK-MEL-28; experiment: Antiproliferative activity against human SK-MEL-28 cells; assay type: functional, cell-based
[15] = biological target: T3, von Hippel-Lindau disease tumor suppressor/Serine/threonine-protein kinase Sgk3 (Homo sapiens) (UniProt Q96BR1+P40337); experiment: Protac activity at VHL/SGK3 in human HEK293 cells at […] measured within 2 hrs relative to control; assay type: cell-based
[16] = biological target: T3, von Hippel-Lindau disease tumor suppressor/Serine/threonine-protein kinase Sgk3 (Homo sapiens); experiment: Protac activity at VHL/SGK3 in human HEK293 cells at […] measured within 8 hrs relative to control; assay type: cell-based
[17] = biological target: T4, von Hippel-Lindau disease tumor suppressor/Estrogen receptor (Homo sapiens, UniProt P03372+P40337); experiment: Protac activity at VHL/ER (unknown origin) assessed as degradation of ER
Target sequence in this assay (P03372 whole entry): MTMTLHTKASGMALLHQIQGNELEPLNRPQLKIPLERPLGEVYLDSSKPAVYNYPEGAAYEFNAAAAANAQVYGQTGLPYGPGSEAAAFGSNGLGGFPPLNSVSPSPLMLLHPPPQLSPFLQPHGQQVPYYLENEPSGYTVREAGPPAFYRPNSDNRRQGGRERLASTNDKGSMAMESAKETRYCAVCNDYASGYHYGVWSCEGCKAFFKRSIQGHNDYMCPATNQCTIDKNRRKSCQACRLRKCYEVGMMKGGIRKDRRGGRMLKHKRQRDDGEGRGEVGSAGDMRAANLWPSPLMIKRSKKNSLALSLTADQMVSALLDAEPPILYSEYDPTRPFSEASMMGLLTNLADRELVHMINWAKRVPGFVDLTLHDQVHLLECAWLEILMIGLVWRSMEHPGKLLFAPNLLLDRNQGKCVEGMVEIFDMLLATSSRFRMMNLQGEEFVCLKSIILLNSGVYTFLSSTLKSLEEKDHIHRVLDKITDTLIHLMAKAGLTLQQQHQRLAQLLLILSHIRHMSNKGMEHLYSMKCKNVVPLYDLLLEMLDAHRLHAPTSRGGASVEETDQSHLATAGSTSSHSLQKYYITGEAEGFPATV
Target sequence in this assay (P40337 whole entry): as the sequence (P40337 whole entry, looked up) above

[18] = biological target: T4, von Hippel-Lindau disease tumor suppressor/Estrogen receptor; experiment: Protac activity at VHL/ER (unknown origin) assessed as degradation of ER relative to control
Target sequence in this assay (P03372 whole entry, looked up): as the sequence (P03372 whole entry) above
Target sequence in this assay (P40337 whole entry, looked up): as the sequence (P40337 whole entry, looked up) above

[19] = tested on: MCF7; experiment: Antiproliferative activity against human MCF7 cells; assay type: functional, cell-based
[20] = tested on: MCF7; experiment: Antiproliferative activity against human MCF7 cells relative to control; assay type: functional
[21] = biological target: Polycomb protein EED (Homo sapiens, UniProt O75530); experiment: Binding affinity to EED (unknown origin) assessed as dissociation constant
[22] = Inhibition of PRC2 (unknown origin); set-up: species or system Homo sapiens
[23] = biological target: ALK tyrosine kinase receptor (Homo sapiens, UniProt Q9UM73); experiment: Inhibition of ALK (unknown origin) incubated for 1 hr by HTRF assay
[24] = biological target: NPM/ALK (Nucleophosmin/ALK tyrosine kinase receptor) (Homo sapiens) (UniProt Q9UM73+P06748); experiment: Inhibition of NPM-ALK in human SU-DHL-1 cells at […] relative to control; assay type: cell-based
[25] = biological target: Dihydroorotate dehydrogenase (quinone), mitochondrial (Homo sapiens, UniProt Q02127); experiment: Inhibition of DHODH (unknown origin)
[26] = biological target: T5, von Hippel-Lindau disease tumor suppressor/Androgen receptor (Homo sapiens, UniProt P10275+P40337); experiment: Protac activity at VHL/androgen receptor (unknown origin) assessed as degradation of androgen receptor; assay type: protein assay
[27] = biological target: T5, von Hippel-Lindau disease tumor suppressor/Androgen receptor; experiment: Protac activity at VHL/full length androgen receptor (unknown origin) assessed as degradation of androgen receptor
[28] = tested on: von Hippel-Lindau disease tumor suppressor/Epidermal growth factor receptor (Homo sapiens), P00533+P40337 [L858R,T790M]; experiment: Protac activity against VHL/geftinib-resistant EGFR L858R/T790M double mutant in human H1975 cells relative to control; assay type: cell-based; details: NCI-H1975
[29] = biological target: T6, Receptor-interacting serine/threonine-protein kinase 2 (Homo sapiens, UniProt O43353); experiment: Degradation of RIPK2 (unknown origin)
[30] = biological target: T6, Receptor-interacting serine/threonine-protein kinase 2; experiment: Degradation of RIPK2 (unknown origin) at more than 10 nM relative to control
[31] = biological target: von Hippel-Lindau disease tumor suppressor/3-hydroxy-3-methylglutaryl-coenzyme A reductase (Homo sapiens, UniProt P04035+P40337); experiment: Protac activity at VHL/HMGCR in Insig-silenced human HepG2 cells; assay type: cell-based
[32] = Inhibition of BRAF mutant (unknown origin); set-up: species or system Homo sapiens
[33] = biological target: Serine/threonine-protein kinase B-raf (Homo sapiens) (UniProt P15056); experiment: Inhibition of BRAF mutant (unknown origin) relative to control
[34] = biological target: T1, von Hippel-Lindau disease tumor suppressor/Epidermal growth factor receptor; experiment: Protac activity against VHL/EGFR in human OVCAR-8 cells assessed as degradation of EGFR; assay type: cell-based
[35] = biological target: T1, von Hippel-Lindau disease tumor suppressor/Epidermal growth factor receptor; experiment: Protac activity against VHL/EGFR in human OVCAR-8 cells assessed as degradation of EGFR relative to control; assay type: cell-based
[36] = tested on: SK-BR-3; experiment: Antiproliferative activity against human SK-BR-3 cells; assay type: functional, cell-based

T3 sequence (P40337 whole entry, looked up): as above
T3 sequence (Q96BR1 whole entry, looked up): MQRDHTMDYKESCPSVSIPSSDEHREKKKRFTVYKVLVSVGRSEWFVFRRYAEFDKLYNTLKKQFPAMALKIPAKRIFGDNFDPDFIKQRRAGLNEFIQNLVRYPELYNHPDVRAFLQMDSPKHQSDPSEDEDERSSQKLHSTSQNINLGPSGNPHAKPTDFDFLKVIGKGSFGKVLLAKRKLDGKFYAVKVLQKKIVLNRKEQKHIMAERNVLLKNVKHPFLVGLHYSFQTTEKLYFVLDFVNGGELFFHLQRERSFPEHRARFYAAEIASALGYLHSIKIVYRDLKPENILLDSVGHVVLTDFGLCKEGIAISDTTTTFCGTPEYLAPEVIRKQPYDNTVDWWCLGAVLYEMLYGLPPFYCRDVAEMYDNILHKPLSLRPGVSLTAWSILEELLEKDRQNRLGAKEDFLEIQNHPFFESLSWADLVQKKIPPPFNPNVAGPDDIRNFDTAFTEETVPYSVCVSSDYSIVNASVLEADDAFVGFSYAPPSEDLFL
Chain of Polycomb protein EED (O75530 whole entry): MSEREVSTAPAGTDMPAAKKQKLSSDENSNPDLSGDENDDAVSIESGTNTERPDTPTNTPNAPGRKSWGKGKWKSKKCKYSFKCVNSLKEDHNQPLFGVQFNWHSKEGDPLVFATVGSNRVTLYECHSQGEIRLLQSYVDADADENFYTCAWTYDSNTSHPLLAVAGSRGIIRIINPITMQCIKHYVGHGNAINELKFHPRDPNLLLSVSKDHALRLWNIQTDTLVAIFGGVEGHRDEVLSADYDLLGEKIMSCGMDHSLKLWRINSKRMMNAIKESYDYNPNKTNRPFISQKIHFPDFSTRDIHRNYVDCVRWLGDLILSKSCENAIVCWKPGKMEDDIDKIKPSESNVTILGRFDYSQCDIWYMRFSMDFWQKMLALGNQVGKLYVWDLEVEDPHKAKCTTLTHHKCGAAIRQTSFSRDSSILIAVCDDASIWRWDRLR
Chain of Dihydroorotate dehydrogenase (quinone), mitochondrial (Q02127 whole entry): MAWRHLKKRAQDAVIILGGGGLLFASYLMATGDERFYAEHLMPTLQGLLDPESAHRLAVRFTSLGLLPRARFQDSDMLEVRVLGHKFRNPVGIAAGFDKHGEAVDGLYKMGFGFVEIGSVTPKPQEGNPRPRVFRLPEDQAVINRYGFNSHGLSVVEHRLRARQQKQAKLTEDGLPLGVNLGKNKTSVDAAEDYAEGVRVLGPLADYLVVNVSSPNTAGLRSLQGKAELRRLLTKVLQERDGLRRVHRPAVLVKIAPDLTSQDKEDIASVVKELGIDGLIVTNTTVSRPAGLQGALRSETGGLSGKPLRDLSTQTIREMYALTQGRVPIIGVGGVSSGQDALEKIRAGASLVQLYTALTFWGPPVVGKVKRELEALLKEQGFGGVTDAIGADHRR
Chain of von Hippel-Lindau disease tumor suppressor/Oxysterols receptor LXR-beta (P55055 whole entry): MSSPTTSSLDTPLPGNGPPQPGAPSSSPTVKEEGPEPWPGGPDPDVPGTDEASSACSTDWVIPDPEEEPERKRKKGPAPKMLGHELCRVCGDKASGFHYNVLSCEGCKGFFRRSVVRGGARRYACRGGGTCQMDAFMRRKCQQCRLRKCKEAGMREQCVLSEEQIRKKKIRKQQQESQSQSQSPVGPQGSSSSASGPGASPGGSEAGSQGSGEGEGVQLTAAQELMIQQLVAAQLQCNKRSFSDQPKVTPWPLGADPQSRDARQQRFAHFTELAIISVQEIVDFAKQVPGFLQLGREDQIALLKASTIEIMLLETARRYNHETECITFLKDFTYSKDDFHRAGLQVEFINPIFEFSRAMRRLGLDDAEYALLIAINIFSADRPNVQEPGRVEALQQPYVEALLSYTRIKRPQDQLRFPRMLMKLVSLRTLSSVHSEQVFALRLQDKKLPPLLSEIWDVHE
Chain of von Hippel-Lindau disease tumor suppressor/Oxysterols receptor LXR-beta (P40337 whole entry): as the sequence (P40337 whole entry, looked up) above
T6 sequence (O43353 whole entry): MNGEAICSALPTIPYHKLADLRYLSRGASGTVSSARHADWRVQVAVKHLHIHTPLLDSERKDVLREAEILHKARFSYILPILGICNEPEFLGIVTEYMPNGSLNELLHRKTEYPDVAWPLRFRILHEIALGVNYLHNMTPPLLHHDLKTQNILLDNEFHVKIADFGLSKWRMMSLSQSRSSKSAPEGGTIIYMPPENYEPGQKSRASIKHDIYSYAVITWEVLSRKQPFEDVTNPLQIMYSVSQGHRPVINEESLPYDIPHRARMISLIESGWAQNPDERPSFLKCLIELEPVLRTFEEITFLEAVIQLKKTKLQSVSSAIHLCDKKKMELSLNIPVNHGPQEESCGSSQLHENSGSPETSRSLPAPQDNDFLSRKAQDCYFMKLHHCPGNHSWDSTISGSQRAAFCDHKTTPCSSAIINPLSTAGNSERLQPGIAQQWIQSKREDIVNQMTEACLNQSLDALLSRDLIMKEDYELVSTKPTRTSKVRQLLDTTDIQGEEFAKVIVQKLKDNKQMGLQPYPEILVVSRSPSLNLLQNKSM

Compound: COc1cc2ncnc(Nc3ccc(F)c(Cl)c3)c2cc1OCCCCCOCCOCCC(=O)N[C@H](C(=O)N1C[C@H](O)C[C@H]1C(=O)NCc1ccc(-c2scnc2C)cc1)C(C)(C)C
- DC50 [1]: 11.7 nM
- Emax [2]: 98.9%
- DC50 [3]: 22.3 nM
- Emax [4]: 96.6%

Compound: CC(=O)c1c(C)c2cnc(Nc3ccc(N4CCN(CCOCCOCCOc5cc(-c6scnc6C)ccc5CNC(=O)[C@@H]5C[C@@H](O)CN5C(=O)[C@@H](NC(=O)C5(F)CC5)C(C)(C)C)CC4)cn3)nc2n(C2CCCC2)c1=O
- DC50 [5]: 5.1 nM
- DC50 [6]: 20 nM
- Activity [7]: > 95%

Compound: Cc1ncsc1-c1ccc(CNC(=O)[C@@H]2C[C@@H](O)CN2C(=O)[C@@H](NC(=O)CCOCCOc2ccc(Nc3ncc(C(F)(F)F)c(NCc4cccc(N(C)S(C)(=O)=O)c4)n3)cc2)C(C)(C)C)cc1
- Emax [8]: 99%

Compound: C=C(F)C(=O)N1CCN(c2nc(OC[C@@H]3CCCN3CCCOCCC(=O)N[C@H](C(=O)N3C[C@H](O)C[C@H]3C(=O)NCc3ccc(-c4scnc4C)cc3)C(C)(C)C)nc3c2CCN(c2cccc4cccc(Cl)c24)C3)C[C@@H]1CC#N
- DC50 [9]: 250 nM

Compound: O=C(O)Cc1cccc(OCCCN(Cc2cccc(C(F)(F)F)c2Cl)CC(c2ccccc2)c2ccccc2)c1
- EC50 [10]: 20 nM

Compound: Cc1ncsc1-c1ccc(CNC(=O)[C@@H]2C[C@@H](O)CN2C(=O)[C@@H](NC(=O)CCOCCOCCOc2ccc3c(c2)sc2nc(-c4ccc(NC(=O)Nc5cc(C(C)(C)C)on5)cc4)cn23)C(C)(C)C)cc1
- IC50 [11]: 0.6 nM
- IC50 [12]: 0.6 nM

Compound: Cc1ncsc1-c1ccc([C@H](C)NC(=O)[C@@H]2C[C@@H](OC(=O)CCCCn3cc(CNC(=O)CC[C@H](NC(=O)c4ccc(NCc5cnc6nc(N)[nH]c(=O)c6n5)cc4)C(=O)O)nn3)CN2C(=O)[C@@H](NC(=O)CCCCCCCCCCNCCCONC(=O)c2ccc(F)c(F)c2Nc2ccc(I)cc2F)C(C)(C)C)cc1
- IC50 [13]: 436 nM
- IC50 [14]: 390 nM

Compound: Cc1ccc(F)c(S(=O)(=O)Nc2ccc(-c3nc(OC[C@H]4CN(CCCCCCOCCOCCOCC(=O)N[C@H](C(=O)N5C[C@H](O)C[C@H]5C(=O)NCc5ccc(-c6scnc6C)cc5)C(C)(C)C)CCO4)c4cn[nH]c4n3)cc2)c1
- Activity [15]: 50%
- Activity [16]: 80%

Compound: Cc1ncsc1-c1ccc([C@H](C)NC(=O)[C@@H]2C[C@@H](O)CN2C(=O)[C@@H](NC(=O)CCCCOc2ccc(CCNC(=O)c3ccc(C(=O)c4c(-c5ccc(O)cc5)sc5cc(O)ccc45)cc3)cc2)C(C)(C)C)cc1
- DC50 [17]: 1.1 nM
- Emax [18]: 98%
- IC50 [19]: 13.2 nM
- Imax [20]: 69%

Compound: Cc1nc(CCC(=O)NCCOc2ccc(OCC(=O)N[C@H](C(=O)N3C[C@H](O)C[C@H]3C(=O)NCc3ccc(-c4scnc4C)cc3)C(C)(C)C)cc2)ccc1-c1cnc(NCc2c(F)ccc3c2CCO3)n2cnnc12
- Kd [21]: 1 nM
- pIC50 [22]: 8.1

Compound: Cc1cc(Nc2ncc(Cl)c(Nc3ccccc3S(=O)(=O)C(C)C)n2)c(OC(C)C)cc1C1CCN(C(=O)CCCC(=O)N[C@H](C(=O)N2C[C@H](O)C[C@H]2C(=O)NCc2ccc(-c3scnc3C)cc2)C(C)(C)C)CC1
- IC50 [23]: 7 nM
- inhibition [24]: 90%

Compound: Cc1ncsc1-c1ccc(CNC(=O)[C@@H]2C[C@@H](O)CN2C(=O)[C@@H](NC(=O)OCCOCCOCCOc2ccc(-c3ccc(-c4nc5ccc(F)cc5c(C(=O)O)c4C)cc3)cc2)C(C)(C)C)cc1
- IC50 [25]: 93 nM

Compound: Cc1ncsc1-c1ccc(CNC(=O)[C@@H]2C[C@@H](O)CN2C(=O)[C@@H](NC(=O)COCCOCCOCCOCCOCCNC(=O)Cc2cccc(OCCCN(Cc3cccc(C(F)(F)F)c3Cl)CC(c3ccccc3)c3ccccc3)c2)C(C)(C)C)cc1
- EC50 [10]: 31 nM

Compound: Cc1ncsc1-c1ccc([C@H](C)NC(=O)[C@@H]2C[C@@H](O)CN2C(=O)[C@@H](NC(=O)CCCCCNC(=O)COc2ccccc2-c2csc(N3CCOCC3)n2)C(C)(C)C)cc1
- DC50 [26]: 370 nM
- DC50 [27]: 2000 nM

Compound: Cc1ncsc1-c1ccc(CNC(=O)[C@@H]2C[C@@H](O)CN2C(=O)[C@@H](NC(=O)CCCCCOCCCCOCCCCOc2cc3ncnc(Nc4ccc(F)c(Cl)c4)c3cc2NC(=O)/C=C/CN(C)C)C(C)(C)C)cc1
- Emax [28]: 79.1%

Compound: Cc1ncsc1-c1ccc([C@H](C)NC(=O)[C@@H]2C[C@@H](O)CN2C(=O)[C@@H](NC(=O)CCCCOc2ccc(/C=N/NC(=O)c3ccc(C(=O)c4c(-c5ccc(O)cc5)sc5cc(O)ccc45)cc3)cc2)C(C)(C)C)cc1 (stereo in doubt)
- DC50 [17]: 10 nM
- Emax [18]: 95%

Compound: Cc1ncsc1-c1ccc(CNC(=O)[C@@H]2C[C@@H](O)CN2C(=O)[C@@H](NC(=O)COCCOCCOCCOCCOc2cc3nccc(Nc4ccc5scnc5c4)c3cc2S(=O)(=O)C(C)(C)C)C(C)(C)C)cc1
- DC50 [29]: 1.4 nM
- Emax [30]: > 95%

Compound: Cc1ncsc1-c1ccc(CNC(=O)[C@@H]2C[C@@H](O)CN2C(=O)[C@@H](NC(=O)CCCCCCCCCCNC(=O)O[C@H]2C[C@@H](C)C=C3C=C[C@H](C)[C@H](CC[C@@H](O)C[C@@H](O)CC(=O)O)[C@H]32)C(C)(C)C)cc1
- DC50 [31]: 120 nM

Compound: CCCS(=O)(=O)Nc1ccc(F)c(C(=O)c2c[nH]c3ncc(-c4ccc(N5CCN(CC(=O)N[C@H](C(=O)N6C[C@H](O)C[C@H]6C(=O)NCc6ccc(-c7scnc7C)cc6)C(C)(C)C)CC5)cc4)cc23)c1F
- IC50 [32]: 6.8 nM
- Emax [33]: > 95%

Compound: Cc1nc(CCC(=O)NCCCCC(=O)N[C@H](C(=O)N2C[C@H](O)C[C@H]2C(=O)NCc2ccc(-c3scnc3C)cc2)C(C)(C)C)ccc1-c1cnc(NCc2c(F)ccc3c2CCO3)n2cnnc12
- Kd [21]: 1 nM
- pIC50 [22]: 8.1

Compound: COC(=O)c1c(C)c(-c2ccc(-c3ccc(OCCOCCOCCOC(=O)N[C@H](C(=O)N4C[C@H](O)C[C@H]4C(=O)NCc4ccc(-c5scnc5C)cc4)C(C)(C)C)cc3)cc2)nc2ccc(F)cc12
- IC50 [25]: > 200000 nM

Compound: Cc1ncsc1-c1ccc(CNC(=O)[C@@H]2C[C@@H](O)CN2C(=O)[C@@H](NC(=O)COCCOCCOc2ccc(-c3ccc4ncnc(Nc5ccc(OCc6cccc(F)c6)c(Cl)c5)c4c3)cc2)C(C)(C)C)cc1
- DC50 [34]: 39.2 nM
- Emax [35]: 97.6%
- IC50 [36]: 102 nM
